The values below come from ChEMBL document CHEMBL5724914, “Linking interpersonal differences in gut microbiota composition and drug biotransformation activity” (2024).

Molecules are shown by their SMILES.

The conditions of data set [1]: human gut metagenome, 24 h, 2 µM.
The conditions of data set [2]: human gut metagenome, 24 h, 2 µM. This is another data set of the same source.
A short description of data set [3]: The drug is tested on WLS-098 corresponding to human gut metagenome with ENA study accession number: PRJEB37062 and ENA sample accession number: ERS12561754 for biotransformation under anaerobic condition. The drug concentrations were measured over 9 timepoints collected between 0 and 24 hours of incubation by liquid-chromatography-coupled mass spectrometry (LC–MS). To be noted: 2 µM.

The conditions of data set [4]: human gut metagenome, 24 h, 2 µM. The source holds these as a separate data set.
Data set [5] is described as follows: The drug is tested on Z-003 corresponding to pig gut metagenome with ENA study accession number: PRJEB37062 and ENA sample accession number: ERS12561803 for biotransformation under anaerobic condition. The drug concentrations were measured over 9 timepoints collected between 0 and 24 hours of incubation by liquid-chromatography-coupled mass spectrometry (LC–MS). The following applies: 2 µM.

Data set [6] in a line: The drug is tested on WLS-310 corresponding to human gut metagenome with ENA study accession number: PRJEB37062 and ENA sample accession number: ERS12561785 for biotransformation under anaerobic condition. The drug concentrations were measured over 9 timepoints collected between 0 and 24 hours of incubation by liquid-chromatography-coupled mass spectrometry (LC–MS). The following applies: 2 µM.

A short description of data set [7]: The drug is tested on Z-018 corresponding to pig gut metagenome with ENA study accession number: PRJEB37062 and ENA sample accession number: ERS12561817 for biotransformation under anaerobic condition. The drug concentrations were measured over 9 timepoints collected between 0 and 24 hours of incubation by liquid-chromatography-coupled mass spectrometry (LC–MS). To be noted: 2 µM.

A short description of data set [8]: The drug is tested on Z-026 corresponding to metagenome with ENA study accession number: PRJEB37062 and ENA sample accession number: ERS12561825 for biotransformation under anaerobic condition. The drug concentrations were measured over 9 timepoints collected between 0 and 24 hours of incubation by liquid-chromatography-coupled mass spectrometry (LC–MS). To be noted: 2 µM.

Data set [9] in a line: The drug is tested on WLS-006 corresponding to human gut metagenome with ENA study accession number: PRJEB37062 and ENA sample accession number: ERS12561741 for biotransformation under anaerobic condition. The drug concentrations were measured over 9 timepoints collected between 0 and 24 hours of incubation by liquid-chromatography-coupled mass spectrometry (LC–MS). To be noted: 2 µM.

The conditions of data set [10]: human gut metagenome, 24 h, 2 µM. The source holds these as a separate data set.
The nature of data set [11]: The drug is tested on Z-028 corresponding to mouse gut metagenome with ENA study accession number: PRJEB37062 and ENA sample accession number: ERS12561827 for biotransformation under anaerobic condition. The drug concentrations were measured over 9 timepoints collected between 0 and 24 hours of incubation by liquid-chromatography-coupled mass spectrometry (LC–MS). The following applies: 2 µM.

A short description of data set [12]: The drug is tested on Z-027 corresponding to metagenome with ENA study accession number: PRJEB37062 and ENA sample accession number: ERS12561826 for biotransformation under anaerobic condition. The drug concentrations were measured over 9 timepoints collected between 0 and 24 hours of incubation by liquid-chromatography-coupled mass spectrometry (LC–MS). The following applies: 2 µM.

A short description of data set [13]: The drug is tested on Z-029 corresponding to rat gut metagenome with ENA study accession number: PRJEB37062 and ENA sample accession number: ERS12561828 for biotransformation under anaerobic condition. The drug concentrations were measured over 9 timepoints collected between 0 and 24 hours of incubation by liquid-chromatography-coupled mass spectrometry (LC–MS). The following applies: 2 µM.

For data set [14] the following is noted: human gut metagenome, 24 h, 2 µM. This is another data set of the same source.
The conditions of data set [15]: human gut metagenome, 24 h, 2 µM. This is another data set of the same source.
For data set [16] the following is noted: human gut metagenome, 24 h, 2 µM. This is another data set of the same source.
The nature of data set [17]: The drug is tested on WLS-240 corresponding to human gut metagenome with ENA study accession number: PRJEB37062 and ENA sample accession number: ERS12561773 for biotransformation under anaerobic condition. The drug concentrations were measured over 9 timepoints collected between 0 and 24 hours of incubation by liquid-chromatography-coupled mass spectrometry (LC–MS). The following applies: 2 µM.

Data set [18] is described as follows: The drug is tested on Z-007 corresponding to rat gut metagenome with ENA study accession number: PRJEB37062 and ENA sample accession number: ERS12561807 for biotransformation under anaerobic condition. The drug concentrations were measured over 9 timepoints collected between 0 and 24 hours of incubation by liquid-chromatography-coupled mass spectrometry (LC–MS). To be noted: 2 µM.

Data set [19] can be described thus: The drug is tested on WLS-077 corresponding to human gut metagenome with ENA study accession number: PRJEB37062 and ENA sample accession number: ERS12561750 for biotransformation under anaerobic condition. The drug concentrations were measured over 9 timepoints collected between 0 and 24 hours of incubation by liquid-chromatography-coupled mass spectrometry (LC–MS). To be noted: 2 µM.

Data set [20] can be described thus: The drug is tested on WLS-170 corresponding to human gut metagenome with ENA study accession number: PRJEB37062 and ENA sample accession number: ERS12561762 for biotransformation under anaerobic condition. The drug concentrations were measured over 9 timepoints collected between 0 and 24 hours of incubation by liquid-chromatography-coupled mass spectrometry (LC–MS). To be noted: 2 µM.
Further: call rule not given here.

Take `CCCC1O[C@@H]2C[C@H]3[C@@H]4CCC5=CC(=O)C=C[C@]5(C)[C@H]4[C@@H](O)C[C@]3(C)[C@]2(C(=O)CO)O1` (stereo not given in full) [BUDESONIDE]: the “Bacterial Biotransformation” value is on record as “Compound metabolized” in [1]; “Compound NOT metabolized” in data set [2]; “Compound metabolized” in data set [3]; “Compound metabolized” in data set [4]; “Compound metabolized” in data set [5]; “Compound metabolized” in [6]. Also, the “Bacterial Biotransformation” value was “Compound metabolized” in [7]; “Compound NOT metabolized” in data set [8]; “Compound metabolized” in [9]; “Compound metabolized” in data set [10]; “Compound metabolized” in [11]; “Compound NOT metabolized” in [12]. Also, the “Bacterial Biotransformation” value in [13] is “Compound NOT metabolized”; in [14], “Compound metabolized”; in data set [15] it was “Compound metabolized”; in [16] it was “Compound metabolized”; in [17], “Compound metabolized”; in [18] it was “Compound NOT metabolized”. Moreover, the “Bacterial Biotransformation” value in data set [19] and in data set [20] was “Compound metabolized” in each case.
Regarding `O=C(NCc1ccccc1)OCCO` [BURAMATE], the “Bacterial Biotransformation” value in data set [1], in data set [2], in data set [3], in data set [4], in [5] and in [6] was “Compound NOT metabolized” throughout. For the same compound, the “Bacterial Biotransformation” value in data set [7], in [8], in [9], in data set [10], in data set [11] and in data set [12] was “Compound NOT metabolized” in each case. Moreover, the “Bacterial Biotransformation” value in data set [13], in [14], in data set [15], in data set [16], in data set [17] and in [18] was “Compound NOT metabolized” in each case. Besides, the “Bacterial Biotransformation” value in [19] and in data set [20] was “Compound NOT metabolized” in each case.
Turning to `CCN(CC)CCOCCOC(=O)C1(c2ccccc2)CCCC1.O=C(O)CC(O)(CC(=O)O)C(=O)O` [CARBETAPENTANE CITRATE], the “Bacterial Biotransformation” value in data set [1] is recorded as “Compound NOT metabolized”; in data set [2], “Compound NOT metabolized”; in [3] it was “Compound metabolized”; in data set [4] it was “Compound metabolized”; in data set [5], “Compound metabolized”; in [6] it was “Compound metabolized”. Further, the “Bacterial Biotransformation” value in [7] is “Compound metabolized”; in [8], “Compound NOT metabolized”; in data set [9] it was “Compound metabolized”; in data set [10] it was “Compound metabolized”; in data set [11], “Compound NOT metabolized”; in [12], “Compound NOT metabolized”. The “Bacterial Biotransformation” value was “Compound NOT metabolized” in data set [13]; “Compound metabolized” in [14]; “Compound metabolized” in data set [15]; “Compound NOT metabolized” in data set [16]; “Compound metabolized” in data set [17]; “Compound NOT metabolized” in [18]. In addition, the “Bacterial Biotransformation” value in data set [19] and in [20] was “Compound metabolized” in each case.
With `O=C(O)COCCN1CCN(C(c2ccccc2)c2ccc(Cl)cc2)CC1` (stereo not given) [CETIRIZINE], the “Bacterial Biotransformation” value in [1], in data set [2], in data set [3], in [4], in data set [5] and in data set [6] was “Compound metabolized” each time. In addition, the “Bacterial Biotransformation” value was “Compound NOT metabolized” in data set [7]; “Compound NOT metabolized” in data set [8]; “Compound metabolized” in [9]; “Compound metabolized” in data set [10]; “Compound NOT metabolized” in data set [11]; “Compound NOT metabolized” in data set [12]. Further, the “Bacterial Biotransformation” value was “Compound NOT metabolized” in data set [13]; “Compound metabolized” in data set [14]; “Compound metabolized” in [15]; “Compound metabolized” in [16]; “Compound metabolized” in [17]; “Compound NOT metabolized” in [18]. Besides, the “Bacterial Biotransformation” value in data set [19] and in [20] was “Compound metabolized” in each case.
As for `CN/C(=N/CCSCc1nc[nH]c1C)NC#N` [CIMETIDINE], the “Bacterial Biotransformation” value is on record as “Compound NOT metabolized” in data set [1]; “Compound NOT metabolized” in [2]; “Compound metabolized” in [3]; “Compound NOT metabolized” in data set [4]; “Compound NOT metabolized” in data set [5]; “Compound metabolized” in data set [6]. The “Bacterial Biotransformation” value in data set [7] is reported as “Compound metabolized”; in data set [8], “Compound NOT metabolized”; in [9] it was “Compound metabolized”; in [10] it was “Compound NOT metabolized”; in data set [11] it was “Compound NOT metabolized”; in [12], “Compound NOT metabolized”. In addition, the “Bacterial Biotransformation” value in data set [13] was “Compound NOT metabolized”; in [14], “Compound metabolized”; in [15] it was “Compound metabolized”; in data set [16], “Compound NOT metabolized”; in data set [17] it was “Compound metabolized”; in data set [18], “Compound NOT metabolized”. Further, the “Bacterial Biotransformation” value in data set [19] and in [20] was “Compound metabolized” in each case.
